This assay in a line: Binding affinity towards sigma receptor in guinea pig brain membrane was determined by using [3H]DTG as the radioligand.

pKi: −log10 of the molar value.

As usually defined, the pKi is the negative decadic logarithm of the Ki, by convention in mol/L. A higher pKi goes with a small Ki.

The compound `OC12C3C4CC5C6C4C1C6C(C53)N2Cc1cccc(Br)c1` (stereo unspecified) [11-(3-bromobenzyl)-11-azahexacyclo[5.4.1.02,6.03,10.04,8.09,12]dodecan-1-ol] had a pKi of 6.96.
